Test results as given in patent US20120094998A1, “Oligomer-Protein Tyrosine Kinase Inhibitor Conjugates” (Nektar Therapeutics, priority 2009, published 2012).
Where two headings read alike, the source gives them in different places.

Columns and labels:
BTK = BTK (Homo sapiens, UniProt Q06187); experiment: Activity against various protein tyrosine kinases: BTK; format: biochemical; conditions: for inhibition at 0.01 µM: 10 nM
Description: (§1) Using techniques know those of ordinary skill in the art, compounds were tested for activity against various protein tyrosine kinases.

FGFR3 = FGFR3 (Homo sapiens, UniProt P22607); experiment: Activity against various protein tyrosine kinases: FGFR3; format: biochemical; conditions: for inhibition at 0.01 µM: 10 nM
Description: as §1

Flt3 (D835Y) = biological target: T1, Flt3 (D835Y) (Homo sapiens, UniProt P36888, D835Y); experiment: Activity against various protein tyrosine kinases: Flt3 (D835Y); format: biochemical; conditions: for inhibition at 0.01 µM: 10 nM
T1 sequence (P36888 27-993 D835Y): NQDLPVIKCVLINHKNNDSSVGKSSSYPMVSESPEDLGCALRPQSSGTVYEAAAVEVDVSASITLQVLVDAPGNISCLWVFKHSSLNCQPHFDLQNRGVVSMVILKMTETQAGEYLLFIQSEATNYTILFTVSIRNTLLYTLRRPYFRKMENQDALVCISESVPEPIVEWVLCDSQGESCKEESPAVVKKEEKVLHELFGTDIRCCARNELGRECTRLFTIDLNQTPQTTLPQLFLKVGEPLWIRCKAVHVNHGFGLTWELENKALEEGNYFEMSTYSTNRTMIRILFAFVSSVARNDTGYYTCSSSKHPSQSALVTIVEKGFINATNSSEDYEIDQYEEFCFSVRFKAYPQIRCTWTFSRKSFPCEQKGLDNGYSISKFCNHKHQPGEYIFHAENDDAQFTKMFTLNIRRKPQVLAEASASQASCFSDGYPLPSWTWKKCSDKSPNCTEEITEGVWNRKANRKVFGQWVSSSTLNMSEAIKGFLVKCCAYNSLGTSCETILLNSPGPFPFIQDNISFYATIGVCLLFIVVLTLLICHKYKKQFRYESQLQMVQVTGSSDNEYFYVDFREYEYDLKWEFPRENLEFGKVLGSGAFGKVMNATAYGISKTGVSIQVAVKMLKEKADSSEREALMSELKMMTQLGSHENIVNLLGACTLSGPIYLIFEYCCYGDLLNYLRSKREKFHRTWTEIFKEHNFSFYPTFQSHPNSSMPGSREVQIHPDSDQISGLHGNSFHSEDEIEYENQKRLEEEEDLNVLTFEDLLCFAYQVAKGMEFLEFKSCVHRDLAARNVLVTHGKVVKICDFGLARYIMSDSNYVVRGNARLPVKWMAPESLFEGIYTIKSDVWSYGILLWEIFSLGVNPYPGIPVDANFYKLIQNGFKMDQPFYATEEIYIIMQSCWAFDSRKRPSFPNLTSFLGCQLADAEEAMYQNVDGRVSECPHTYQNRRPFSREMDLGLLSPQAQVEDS
Description: as §1

FYN = FYN (Homo sapiens, UniProt P06241); experiment: Activity against various protein tyrosine kinases: FYN; format: biochemical; conditions: for inhibition at 0.01 µM: 10 nM
Description: as §1

HCK = HCK (Homo sapiens, UniProt P08631); experiment: Activity against various protein tyrosine kinases: HCK; format: biochemical; conditions: for inhibition at 0.01 µM: 10 nM
Description: as §1

LYN = LYN (Homo sapiens, UniProt P07948); experiment: Activity against various protein tyrosine kinases: LYN; format: biochemical; conditions: for inhibition at 0.01 µM: 10 nM
Description: as §1

MAPKAPK2 = MAPKAPK2 (Homo sapiens, UniProt P49137); experiment: Activity against various protein tyrosine kinases: MAPKAPK2; format: biochemical; conditions: for inhibition at 0.01 µM: 10 nM
Description: as §1

PKG1-beta = biological target: T2, PKG1-beta (Homo sapiens, UniProt Q13976); experiment: Activity against various protein tyrosine kinases: PKG1-beta; format: biochemical; conditions: for inhibition at 0.01 µM: 10 nM
T2 sequence (Q13976 1-686 isoform Q13976-2): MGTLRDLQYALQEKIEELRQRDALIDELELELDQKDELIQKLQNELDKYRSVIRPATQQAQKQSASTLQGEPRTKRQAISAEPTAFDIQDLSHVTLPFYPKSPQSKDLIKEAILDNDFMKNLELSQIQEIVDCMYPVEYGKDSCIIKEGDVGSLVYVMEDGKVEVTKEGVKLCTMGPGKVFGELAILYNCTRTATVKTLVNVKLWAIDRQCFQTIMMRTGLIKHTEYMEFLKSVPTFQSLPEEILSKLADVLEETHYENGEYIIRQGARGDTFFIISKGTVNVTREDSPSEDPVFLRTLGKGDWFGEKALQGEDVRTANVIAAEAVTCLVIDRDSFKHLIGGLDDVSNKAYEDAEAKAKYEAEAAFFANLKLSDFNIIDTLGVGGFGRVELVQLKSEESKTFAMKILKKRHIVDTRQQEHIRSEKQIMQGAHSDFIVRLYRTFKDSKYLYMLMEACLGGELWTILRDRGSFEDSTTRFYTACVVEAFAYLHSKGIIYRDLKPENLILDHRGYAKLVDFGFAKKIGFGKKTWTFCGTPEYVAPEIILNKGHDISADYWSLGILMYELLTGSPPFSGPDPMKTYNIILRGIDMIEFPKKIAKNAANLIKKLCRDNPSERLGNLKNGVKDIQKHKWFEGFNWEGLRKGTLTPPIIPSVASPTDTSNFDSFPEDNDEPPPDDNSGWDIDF
Description: as §1

ABL [1] = biological target: T3, ABL (Homo sapiens, UniProt P00519); experiment: Activity against various protein tyrosine kinases: ABL; format: biochemical; set-up: purchased MILLIPORE 14-529; conditions: for inhibition at 0.01 µM: read-out: % Inhibition at 10 nM; for inhibition at 1 µM: read-out: % Inhibition at 1 μM
Description: as §1

ABL [2] = biological target: T3, ABL; experiment: Off-chip mobility-shift kinase assay (Caliper LABCHIP), ABL

T3 sequence (P00519 whole entry): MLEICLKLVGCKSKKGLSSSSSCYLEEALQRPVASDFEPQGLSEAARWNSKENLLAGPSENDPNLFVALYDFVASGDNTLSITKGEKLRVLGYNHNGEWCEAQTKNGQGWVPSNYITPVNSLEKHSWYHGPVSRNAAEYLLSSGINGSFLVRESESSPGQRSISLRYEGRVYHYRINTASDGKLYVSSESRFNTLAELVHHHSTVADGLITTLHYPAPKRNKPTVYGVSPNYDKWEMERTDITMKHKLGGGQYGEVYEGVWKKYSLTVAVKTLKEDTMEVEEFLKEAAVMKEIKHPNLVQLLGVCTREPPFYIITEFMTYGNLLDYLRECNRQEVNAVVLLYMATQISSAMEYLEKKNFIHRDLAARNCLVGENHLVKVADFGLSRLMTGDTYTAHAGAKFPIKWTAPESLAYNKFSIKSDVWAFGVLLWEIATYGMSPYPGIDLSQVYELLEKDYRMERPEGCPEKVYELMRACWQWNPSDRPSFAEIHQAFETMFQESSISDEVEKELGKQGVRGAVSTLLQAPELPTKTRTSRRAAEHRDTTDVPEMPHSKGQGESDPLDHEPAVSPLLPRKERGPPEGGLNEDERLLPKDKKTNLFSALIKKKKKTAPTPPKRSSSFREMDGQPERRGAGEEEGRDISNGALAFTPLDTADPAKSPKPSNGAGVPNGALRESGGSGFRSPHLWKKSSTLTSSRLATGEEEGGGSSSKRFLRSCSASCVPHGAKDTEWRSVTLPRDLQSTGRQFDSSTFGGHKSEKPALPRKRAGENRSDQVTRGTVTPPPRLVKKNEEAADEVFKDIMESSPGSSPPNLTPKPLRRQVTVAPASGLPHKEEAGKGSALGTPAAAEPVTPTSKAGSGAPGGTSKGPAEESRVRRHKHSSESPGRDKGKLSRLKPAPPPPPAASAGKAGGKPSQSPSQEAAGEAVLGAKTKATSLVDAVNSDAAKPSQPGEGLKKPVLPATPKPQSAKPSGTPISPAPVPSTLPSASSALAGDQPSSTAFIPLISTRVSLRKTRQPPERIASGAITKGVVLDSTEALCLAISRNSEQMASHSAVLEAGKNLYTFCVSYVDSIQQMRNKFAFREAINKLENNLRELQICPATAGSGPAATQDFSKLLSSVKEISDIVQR
Sequence of FYN (P06241 whole entry, species assumed): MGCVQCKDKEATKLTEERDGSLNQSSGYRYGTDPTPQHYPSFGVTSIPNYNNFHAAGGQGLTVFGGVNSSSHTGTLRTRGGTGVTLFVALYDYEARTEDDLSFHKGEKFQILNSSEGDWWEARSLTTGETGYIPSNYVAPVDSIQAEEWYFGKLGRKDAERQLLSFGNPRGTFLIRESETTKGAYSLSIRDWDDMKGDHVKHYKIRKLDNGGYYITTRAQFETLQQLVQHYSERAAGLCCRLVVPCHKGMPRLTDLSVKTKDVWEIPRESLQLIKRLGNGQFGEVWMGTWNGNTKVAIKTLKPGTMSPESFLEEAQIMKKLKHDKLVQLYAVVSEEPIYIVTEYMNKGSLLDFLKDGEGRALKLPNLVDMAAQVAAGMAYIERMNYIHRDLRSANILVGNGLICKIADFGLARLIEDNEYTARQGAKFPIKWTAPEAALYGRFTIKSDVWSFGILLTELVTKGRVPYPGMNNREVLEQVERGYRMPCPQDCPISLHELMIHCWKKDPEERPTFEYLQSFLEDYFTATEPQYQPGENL
Sequence of MAPKAPK2 (P49137 whole entry, species assumed): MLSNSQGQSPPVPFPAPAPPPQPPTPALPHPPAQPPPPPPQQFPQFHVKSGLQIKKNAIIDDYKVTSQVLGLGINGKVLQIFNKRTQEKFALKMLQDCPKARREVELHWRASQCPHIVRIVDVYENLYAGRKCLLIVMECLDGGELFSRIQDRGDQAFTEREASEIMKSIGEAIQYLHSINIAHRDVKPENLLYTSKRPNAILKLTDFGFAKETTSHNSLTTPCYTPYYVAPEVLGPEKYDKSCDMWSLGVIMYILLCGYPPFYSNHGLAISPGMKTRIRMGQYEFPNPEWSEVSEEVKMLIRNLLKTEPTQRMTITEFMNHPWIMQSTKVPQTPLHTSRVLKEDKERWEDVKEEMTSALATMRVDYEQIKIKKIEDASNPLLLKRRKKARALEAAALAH
Sequence of FGFR3 (P22607 23-806, species assumed): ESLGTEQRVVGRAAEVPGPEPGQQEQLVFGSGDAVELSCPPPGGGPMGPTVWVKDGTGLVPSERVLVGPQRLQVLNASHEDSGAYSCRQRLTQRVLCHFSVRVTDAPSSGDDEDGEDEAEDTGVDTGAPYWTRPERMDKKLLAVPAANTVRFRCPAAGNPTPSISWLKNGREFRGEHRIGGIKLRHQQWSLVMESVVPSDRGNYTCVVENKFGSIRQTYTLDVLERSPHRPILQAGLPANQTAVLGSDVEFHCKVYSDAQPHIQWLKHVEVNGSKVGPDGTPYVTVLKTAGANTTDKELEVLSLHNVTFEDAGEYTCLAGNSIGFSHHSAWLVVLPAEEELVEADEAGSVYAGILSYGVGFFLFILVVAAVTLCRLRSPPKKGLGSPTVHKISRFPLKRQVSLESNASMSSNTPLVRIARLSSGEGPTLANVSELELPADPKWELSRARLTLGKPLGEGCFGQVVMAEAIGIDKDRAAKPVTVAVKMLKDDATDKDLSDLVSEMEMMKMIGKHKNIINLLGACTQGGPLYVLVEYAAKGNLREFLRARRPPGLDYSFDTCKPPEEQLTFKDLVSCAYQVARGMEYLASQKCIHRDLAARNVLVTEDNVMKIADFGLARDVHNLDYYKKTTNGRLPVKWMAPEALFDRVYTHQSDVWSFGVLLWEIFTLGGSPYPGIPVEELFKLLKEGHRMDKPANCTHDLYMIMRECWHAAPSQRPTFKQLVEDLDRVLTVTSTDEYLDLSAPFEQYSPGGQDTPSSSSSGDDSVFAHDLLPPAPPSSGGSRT
Sequence of BTK (Q06187 whole entry, species assumed): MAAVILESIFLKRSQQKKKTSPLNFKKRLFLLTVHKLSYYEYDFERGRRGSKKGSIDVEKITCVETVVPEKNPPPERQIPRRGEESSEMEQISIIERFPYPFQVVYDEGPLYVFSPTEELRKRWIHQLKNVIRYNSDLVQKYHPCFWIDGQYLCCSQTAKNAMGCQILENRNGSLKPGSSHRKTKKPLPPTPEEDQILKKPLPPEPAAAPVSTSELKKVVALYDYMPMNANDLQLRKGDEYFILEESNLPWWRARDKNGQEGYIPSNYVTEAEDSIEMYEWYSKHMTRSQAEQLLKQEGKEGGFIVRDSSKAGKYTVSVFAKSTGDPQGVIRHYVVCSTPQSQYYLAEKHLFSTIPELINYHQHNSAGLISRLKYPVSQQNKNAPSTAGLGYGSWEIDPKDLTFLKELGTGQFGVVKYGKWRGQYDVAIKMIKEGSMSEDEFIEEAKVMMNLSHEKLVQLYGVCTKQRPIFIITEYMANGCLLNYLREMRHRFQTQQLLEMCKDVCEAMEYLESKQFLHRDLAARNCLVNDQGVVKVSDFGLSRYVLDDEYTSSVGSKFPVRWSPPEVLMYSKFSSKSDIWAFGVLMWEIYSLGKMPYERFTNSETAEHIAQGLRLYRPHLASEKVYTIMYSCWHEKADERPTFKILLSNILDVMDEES
Sequence of HCK (P08631 whole entry, species assumed): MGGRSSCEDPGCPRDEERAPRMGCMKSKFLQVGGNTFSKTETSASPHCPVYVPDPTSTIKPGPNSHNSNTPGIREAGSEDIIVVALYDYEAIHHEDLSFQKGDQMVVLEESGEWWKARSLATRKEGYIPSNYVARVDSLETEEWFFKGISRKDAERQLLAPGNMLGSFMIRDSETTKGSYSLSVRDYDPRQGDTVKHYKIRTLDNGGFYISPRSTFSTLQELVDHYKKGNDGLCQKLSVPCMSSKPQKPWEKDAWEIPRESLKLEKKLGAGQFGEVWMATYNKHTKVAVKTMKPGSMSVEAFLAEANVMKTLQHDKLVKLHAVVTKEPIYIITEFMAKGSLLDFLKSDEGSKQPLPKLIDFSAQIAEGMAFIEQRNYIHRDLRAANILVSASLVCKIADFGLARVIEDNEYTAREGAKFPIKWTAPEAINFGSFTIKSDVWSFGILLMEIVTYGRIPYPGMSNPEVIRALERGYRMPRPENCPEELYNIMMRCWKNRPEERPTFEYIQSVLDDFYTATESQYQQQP
Sequence of LYN (P07948 whole entry, species assumed): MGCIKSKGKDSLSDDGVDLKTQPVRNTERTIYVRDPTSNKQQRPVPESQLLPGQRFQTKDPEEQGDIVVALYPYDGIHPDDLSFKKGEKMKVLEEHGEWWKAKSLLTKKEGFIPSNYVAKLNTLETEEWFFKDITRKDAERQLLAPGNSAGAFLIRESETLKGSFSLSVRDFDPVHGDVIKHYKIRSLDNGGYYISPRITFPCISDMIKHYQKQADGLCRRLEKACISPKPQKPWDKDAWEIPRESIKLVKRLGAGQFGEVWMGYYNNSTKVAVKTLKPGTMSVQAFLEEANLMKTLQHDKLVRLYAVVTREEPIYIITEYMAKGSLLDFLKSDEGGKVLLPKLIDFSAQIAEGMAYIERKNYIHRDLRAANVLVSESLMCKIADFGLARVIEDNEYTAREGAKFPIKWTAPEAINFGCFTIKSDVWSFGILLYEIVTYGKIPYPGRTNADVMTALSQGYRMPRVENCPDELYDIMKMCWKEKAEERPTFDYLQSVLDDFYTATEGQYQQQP

Structure (SMILES) | inhibition at 0.01 µM (BTK) [%] | inhibition at 1 µM (BTK) [%] | inhibition at 0.01 µM (FGFR3) [%] | inhibition at 1 µM (FGFR3) [%] | inhibition at 0.01 µM (Flt3 (D835Y)) [%] | inhibition at 1 µM (Flt3 (D835Y)) [%] | inhibition at 0.01 µM (FYN) [%] | inhibition at 1 µM (FYN) [%] | inhibition at 0.01 µM (HCK) [%] | inhibition at 1 µM (HCK) [%] | inhibition at 0.01 µM (LYN) [%] | inhibition at 1 µM (LYN) [%] | inhibition at 0.01 µM (MAPKAPK2) [%] | inhibition at 1 µM (MAPKAPK2) [%] | inhibition at 0.01 µM (PKG1-beta) [%] | inhibition at 1 µM (PKG1-beta) [%] | IC50 (ABL [2]) [nM] | other results
COCCOCCOCCOCCOCCOCCOCCNC(=O)OCCN1CCN(c2cc(Nc3ncc(C(=O)Nc4c(C)cccc4Cl)s3)nc(C)n2)CC1 [mPEG7-NHCOO-Dasatinib] | 99 | 100 | 2 | 10 | 3 | 7 | 98 | 98 | 98 | 99 | 98 | 98 | 3 | 7 | -3 | -3 | 0.32 | inhibition at 0.01 µM (ABL [1]; ABL, 10 nM): 99%; inhibition at 1 µM (ABL [1]; ABL, 1 μM): 99%; ABL AVG % Activity at 1.0E−09 (ABL [2]; concentration 1.0E−09, dasatinib-corresponding compounds): 4%; ABL AVG % Activity at 1.0E−10 (ABL [2]; concentration 1.0E−10, dasatinib-corresponding compounds): 80%; ABL AVG % Activity at 1.0E−11 (ABL [2]; concentration 1.0E−11, dasatinib-corresponding compounds): 98%; ABL AVG % Activity at 3.0E−09 (ABL [2]; concentration 3.0E−09, dasatinib-corresponding compounds): −1%; ABL AVG % Activity at 3.0E−10 (ABL [2]; concentration 3.0E−10, dasatinib-corresponding compounds): 48%; ABL AVG % Activity at 3.0E−11 (ABL [2]; concentration 3.0E−11, dasatinib-corresponding compounds): 91%
COCCOCCOCCNC(=O)OCCN1CCN(c2cc(Nc3ncc(C(=O)Nc4c(C)cccc4Cl)s3)nc(C)n2)CC1 [mPEG3-NHCOO-Dasatinib] | 99 | 100 | 3 | 11 | 6 | 10 | 98 | 99 | 98 | 98 | 99 | 99 | 1 | -1 | -2 | 0 | 0.3 | inhibition at 0.01 µM (ABL [1]): 99%; inhibition at 1 µM (ABL [1]): 99%
